Source: US20080045560A1, “Pyrrolidine and related derivatives useful as PR modulators” (Wyeth, priority 2006, published 2008)

Columns and labels:
[1] = test system: progesterone receptor (alkaline phosphatase activity in T47D cells); assay: Effects of progestins and antiprogestins on alkaline phosphatase activity in T47D cells (antagonist mode); assay type: cell-based; conditions: Homo sapiens, in the presence of 1 nM progesterone, 24 h; for inhibition at 0.003 µM: at 3 nM
Protocol: (1) Effects of Progestins and Antiprogestins on Alkaline Phosphatase Activity in T47D Cells.
• PURPOSE: To identify progestins or antiprogestins by determining a compound's effect on alkaline phosphatase activity in T47D cells.
Culture medium: • DMEM:F12 (1:1) (GIBCO, BRL) supplemented with 5% (v/v) charcoal stripped fetal bovine serum (not heat-inactivated), 100 U/mL penicillin, 100 μg/mL streptomycin, and 2 mM the GlutaMax™ reagent (GIBCO, BRL).
Alkaline phosphatase assay buffer: • I. 0.1M Tris-HCl, pH 9.8, containing 0.2% the Triton® X-100 reagent • II. 0.1M Tris-HCl, pH 9.8, containing 4 mM p-nitrophenyl phosphate (Sigma).
Frozen T47D cells were thawed in a 37° C. water bath and diluted to 280,000 cells/mL in culture medium. To each well in a 96-well plate (Falcon, Becton Dickinson Labware), 180 μL of diluted cell suspension was added.
Twenty μL of reference or test compounds diluted in the culture medium was then added to each well. When testing for progestin antagonist activity, reference antiprogestins or test compounds were added in the presence of 1 nM progesterone. The cells were incubated at 37° C. in a 5% CO2/humidified atmosphere for 24 h. NOTE: For high throughput screening, one concentration of each compound was tested at 0.3 μg/mL. Based on an average molecular weight of 300 g/mol for the compounds in the library, the concentration was approximately 1 μM. Subsequently, active compounds were tested in dose response assays to determine EC50 and IC50.
At the end of treatment, the medium was removed from the plate. Fifty μL of assay buffer I was added to each well. The plates were shaken in a titer plate shaker for 15 min. Then 150 μL of assay buffer II was added to each well. Optical density measurements were taken at 5 min intervals for 30 min at a test wavelength of 405 nm.
For reference and test compounds, a dose response curve was generated for dose (X-axis) vs. the rate of enzyme reaction (slope) (Y-axis). Square root-transformed data was used for analysis of variance and nonlinear dose response curve fitting for both agonist and antagonist modes. Huber weighting was used to down-weight the effects of outliers. EC50 or IC50 values were calculated from the retransformed values. JMP software (SAS Institute, Inc.) was used for both one-way analysis of variance and non-linear dose response analysis in both single dose and dose response studies.
Progesterone and trimegestone were reference progestins and RU486 was the reference antiprogestin. All reference compounds were run in full dose response curves and the EC50 and IC50 values were calculated.

| Structure (SMILES) | melting point [°C] | IC50 [1] [nM] | further results |
| --- | --- | --- | --- |
| CCC1(CC)COC(=O)N1c1nc(-c2ccc(C#N)cc2)cs1 [Example 2, 4-[2-(4,4-Diethyl-2-oxo-1,3-oxazolidin-3-yl)-1,3-thiazol-4-yl]benzonitrile] | 145 to 147 | – | – |
| CC1(C)COC(=O)N1c1nc(-c2cccc(C#N)c2)cs1 [Example 3, 3-[2-(4,4-dimethyl-2-oxo-1,3-oxazolidin-3-yl)-1,3-thiazol-4-yl]benzonitrile] | 181 to 183 | – | – |
| CC1(C)C=CC(=O)N1c1nc(-c2ccc(C#N)cc2)cs1 [Example 7, 4-[2-(2,2-Dimethyl-5-oxo-2,5-dihydro-1H-pyrrol-1-yl)-1,3-thiazol-4-yl]benzonitrile] | – | – | inhibition at 0.003 µM [1]: 60% |
| CC1(C)CCC(=O)N1c1nc(-c2ccc(C#N)cc2)cs1 [Example 8, 4-[2-(2,2-Dimethyl-5-oxopyrrolidin-1-yl)-1,3-thiazol-4-yl]benzonitrile] | – | – | inhibition at 0.003 µM [1]: 50% |
| CC1(C)CCC(=O)N1c1nc(-c2ccc(C#N)cc2)c(F)s1 [Example 9, 4-[2-(2,2-Dimethyl-5-oxopyrrolidin-1-yl)-5-fluoro-1,3-thiazol-4-yl]benzonitrile] | – | 31.6 | – |

More lines, main results first:

| melting point [°C] | IC50 [1] [nM] | Structure (SMILES) | further results |
| --- | --- | --- | --- |
| 197 to 199 | – | C[C@@H]1COC(=O)N1c1nc(-c2ccc(Br)cc2)cs1 [Example 1, (4R)-3-[4-(4-Bromophenyl)-1,3-thiazol-2-yl]-4-methyl-1,3-oxazolidin-2-one] | – |
| – | 44.4 | O=C1C2CCC(CC2)N1c1nc(-c2ccc(Br)cc2)cs1 [Example 10, 2-[4-(4-bromophenyl)-1,3-thiazol-2-yl]-2-azabicyclo[2.2.2]octan-3-one] | – |
| – | 4.8 | N#Cc1ccc(-c2csc(N3C(=O)C4CCC3CC4)n2)cc1 [Example 11, 4-[2-(3-oxo-2-azabicyclo[2.2.2]oct-2-yl)-1,3-thiazol-4-yl]benzonitrile] | – |
